Assay results as given in paper PMC7252619 (PLoS ONE, 2020).

What was measured:
Test in all cases: Kinase activity test (ReactionBiology), % enzyme activity relative to DMSO
Type in all cases: biochemical
DAPK1 = target: T1, DAPK1 (Homo sapiens, UniProt P53355); conditions: DAPK1; for % Enzyme Activity (relative to DMSO controls), Data 1: replicate Data 1; for % Enzyme Activity (relative to DMSO controls), Data 2: replicate Data 2
T1 construct: purchased ReactionBiology

CK1d = target: T2, CK1d (Homo sapiens, UniProt P48730); conditions: CK1d; for % Enzyme Activity (relative to DMSO controls), Data 1: replicate Data 1; for % Enzyme Activity (relative to DMSO controls), Data 2: replicate Data 2
T2 construct: purchased ReactionBiology

VEGFR2 = VEGFR2 (Homo sapiens, UniProt P35968); parameters: purchased ReactionBiology; conditions: VEGFR2; for % Enzyme Activity (relative to DMSO controls), Data 1: replicate Data 1; for % Enzyme Activity (relative to DMSO controls), Data 2: replicate Data 2;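 on all read-outs here: VEGFR2 was one member of a ten-kinase screening panel testing marketed FDA-approved drugs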
Sequence of VEGFR2 (P35968 20-1356): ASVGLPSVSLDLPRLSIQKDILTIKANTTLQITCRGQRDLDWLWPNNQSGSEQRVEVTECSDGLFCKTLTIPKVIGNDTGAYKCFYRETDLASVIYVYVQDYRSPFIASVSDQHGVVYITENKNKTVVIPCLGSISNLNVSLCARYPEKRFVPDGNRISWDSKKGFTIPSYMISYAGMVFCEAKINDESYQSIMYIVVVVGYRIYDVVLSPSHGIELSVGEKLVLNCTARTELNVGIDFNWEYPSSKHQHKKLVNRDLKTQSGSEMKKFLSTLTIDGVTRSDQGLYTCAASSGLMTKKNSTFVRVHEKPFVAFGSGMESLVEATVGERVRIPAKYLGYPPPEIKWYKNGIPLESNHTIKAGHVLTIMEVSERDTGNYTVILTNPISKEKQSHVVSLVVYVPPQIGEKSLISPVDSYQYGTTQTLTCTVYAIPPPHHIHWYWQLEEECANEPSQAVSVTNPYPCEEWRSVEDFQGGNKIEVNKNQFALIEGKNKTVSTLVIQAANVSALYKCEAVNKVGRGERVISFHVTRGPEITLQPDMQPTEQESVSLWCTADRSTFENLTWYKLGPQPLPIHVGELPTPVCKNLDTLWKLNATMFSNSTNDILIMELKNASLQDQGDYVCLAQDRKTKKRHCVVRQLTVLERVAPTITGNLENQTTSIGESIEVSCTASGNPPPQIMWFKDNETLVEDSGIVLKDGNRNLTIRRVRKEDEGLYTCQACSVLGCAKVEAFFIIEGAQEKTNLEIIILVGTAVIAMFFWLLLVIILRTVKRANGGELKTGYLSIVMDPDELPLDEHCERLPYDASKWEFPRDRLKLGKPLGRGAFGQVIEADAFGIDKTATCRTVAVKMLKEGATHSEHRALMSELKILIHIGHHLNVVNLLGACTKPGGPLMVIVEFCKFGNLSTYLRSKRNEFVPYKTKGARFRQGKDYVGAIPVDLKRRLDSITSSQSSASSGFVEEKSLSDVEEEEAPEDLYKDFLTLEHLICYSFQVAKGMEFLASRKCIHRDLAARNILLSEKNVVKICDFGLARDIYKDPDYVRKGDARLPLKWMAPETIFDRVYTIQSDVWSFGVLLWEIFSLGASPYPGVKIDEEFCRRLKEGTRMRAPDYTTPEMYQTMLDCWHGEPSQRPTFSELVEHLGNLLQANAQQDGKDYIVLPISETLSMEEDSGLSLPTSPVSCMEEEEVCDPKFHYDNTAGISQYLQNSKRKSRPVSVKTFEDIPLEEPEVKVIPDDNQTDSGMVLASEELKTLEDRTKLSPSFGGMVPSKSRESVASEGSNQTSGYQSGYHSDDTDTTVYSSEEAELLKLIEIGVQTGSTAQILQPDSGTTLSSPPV

T1 sequence (P53355 whole entry): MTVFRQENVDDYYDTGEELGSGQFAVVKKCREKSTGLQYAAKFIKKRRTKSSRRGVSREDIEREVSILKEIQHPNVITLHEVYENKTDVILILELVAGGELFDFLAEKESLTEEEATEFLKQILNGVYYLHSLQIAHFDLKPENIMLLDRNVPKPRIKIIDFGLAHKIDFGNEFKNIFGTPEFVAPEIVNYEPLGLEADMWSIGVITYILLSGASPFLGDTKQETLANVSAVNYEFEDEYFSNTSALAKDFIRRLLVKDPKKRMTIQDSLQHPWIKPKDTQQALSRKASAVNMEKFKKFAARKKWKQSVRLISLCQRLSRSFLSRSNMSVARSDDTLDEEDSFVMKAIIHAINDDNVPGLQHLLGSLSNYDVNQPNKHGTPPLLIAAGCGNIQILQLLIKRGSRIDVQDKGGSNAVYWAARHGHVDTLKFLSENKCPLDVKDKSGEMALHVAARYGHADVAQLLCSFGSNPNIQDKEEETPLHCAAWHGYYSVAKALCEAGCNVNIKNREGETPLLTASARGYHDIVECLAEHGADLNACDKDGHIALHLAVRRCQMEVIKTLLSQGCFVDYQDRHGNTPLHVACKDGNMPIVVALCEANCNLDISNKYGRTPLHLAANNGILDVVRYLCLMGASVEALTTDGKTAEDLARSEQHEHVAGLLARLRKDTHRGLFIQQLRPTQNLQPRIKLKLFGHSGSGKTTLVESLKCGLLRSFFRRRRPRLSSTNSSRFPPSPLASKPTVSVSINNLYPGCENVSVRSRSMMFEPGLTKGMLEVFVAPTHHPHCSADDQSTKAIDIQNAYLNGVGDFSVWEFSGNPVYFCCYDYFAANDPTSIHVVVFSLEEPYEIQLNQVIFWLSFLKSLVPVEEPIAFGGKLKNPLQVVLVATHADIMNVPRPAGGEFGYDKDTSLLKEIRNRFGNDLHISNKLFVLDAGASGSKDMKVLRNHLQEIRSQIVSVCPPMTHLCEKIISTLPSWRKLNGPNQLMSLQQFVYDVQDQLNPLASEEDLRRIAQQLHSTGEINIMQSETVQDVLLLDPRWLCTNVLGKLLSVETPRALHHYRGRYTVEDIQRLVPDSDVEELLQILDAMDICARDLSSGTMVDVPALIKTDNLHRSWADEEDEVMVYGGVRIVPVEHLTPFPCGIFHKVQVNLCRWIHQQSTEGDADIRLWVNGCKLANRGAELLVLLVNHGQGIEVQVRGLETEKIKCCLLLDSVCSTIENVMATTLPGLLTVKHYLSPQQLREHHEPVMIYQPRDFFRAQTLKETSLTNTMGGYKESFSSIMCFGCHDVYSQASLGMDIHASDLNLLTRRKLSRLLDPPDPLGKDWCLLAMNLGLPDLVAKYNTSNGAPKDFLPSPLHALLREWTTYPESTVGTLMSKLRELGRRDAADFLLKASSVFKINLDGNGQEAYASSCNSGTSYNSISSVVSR
T2 sequence (P48730 whole entry): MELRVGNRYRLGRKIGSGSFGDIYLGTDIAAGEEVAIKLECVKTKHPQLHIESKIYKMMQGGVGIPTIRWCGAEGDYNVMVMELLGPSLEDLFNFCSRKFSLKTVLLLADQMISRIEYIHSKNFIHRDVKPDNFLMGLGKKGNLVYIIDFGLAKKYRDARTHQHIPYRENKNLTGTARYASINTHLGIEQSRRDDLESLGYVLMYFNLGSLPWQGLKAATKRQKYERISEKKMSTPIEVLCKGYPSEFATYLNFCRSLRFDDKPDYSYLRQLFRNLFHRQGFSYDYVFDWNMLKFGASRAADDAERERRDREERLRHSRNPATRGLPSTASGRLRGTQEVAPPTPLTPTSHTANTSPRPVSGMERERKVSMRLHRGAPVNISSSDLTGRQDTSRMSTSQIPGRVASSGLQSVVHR

Row | SMILES | % Enzyme Activity (relative to DMSO controls), Average (DAPK1; 1 uM) | % Enzyme Activity (relative to DMSO controls), Data 1 (DAPK1; 1 uM) | % Enzyme Activity (relative to DMSO controls), Data 2 (DAPK1; 1 uM) | % Enzyme Activity (relative to DMSO controls), Average (DAPK1; 10 uM) | % Enzyme Activity (relative to DMSO controls), Data 1 (DAPK1; 10 uM) | % Enzyme Activity (relative to DMSO controls), Data 2 (DAPK1; 10 uM) | % Enzyme Activity (relative to DMSO controls), Average (CK1d; 1 uM) | % Enzyme Activity (relative to DMSO controls), Data 1 (CK1d; 1 uM) | % Enzyme Activity (relative to DMSO controls), Data 2 (CK1d; 1 uM) | % Enzyme Activity (relative to DMSO controls), Average (CK1d; 10 uM) | % Enzyme Activity (relative to DMSO controls), Data 1 (CK1d; 10 uM) | % Enzyme Activity (relative to DMSO controls), Data 2 (CK1d; 10 uM) | % Enzyme Activity (relative to DMSO controls), Average (VEGFR2; 1 uM) | % Enzyme Activity (relative to DMSO controls), Data 1 (VEGFR2; 1 uM) | % Enzyme Activity (relative to DMSO controls), Data 2 (VEGFR2; 1 uM) | % Enzyme Activity (relative to DMSO controls), Average (VEGFR2; 10 uM) | % Enzyme Activity (relative to DMSO controls), Data 1 (VEGFR2; 10 uM) | % Enzyme Activity (relative to DMSO controls), Data 2 (VEGFR2; 10 uM)
1 | COC(=O)N[C@H](C(=O)N[C@@H](Cc1ccccc1)[C@@H](O)CN(Cc1ccc(-c2ccccn2)cc1)NC(=O)[C@@H](NC(=O)OC)C(C)(C)C)C(C)(C)C [Atazanavir] | 98.48% | 95.12% | 101.84% | 74.66% | 73.05% | 76.27% | – | – | – | – | – | – | – | – | – | – | – | –
2 | O=C1C(O)=C([C@H]2CC[C@H](c3ccc(Cl)cc3)CC2)C(=O)c2ccccc21 [Atovaquone] | 96.25% | 96.85% | 95.64% | 91.80% | 90.59% | 93% | – | – | – | – | – | – | – | – | – | – | – | –
3 | OC(Cn1cncn1)(Cn1cncn1)c1ccc(F)cc1F [Fluconazole] | 100.65% | 103.85% | 97.44% | 95.87% | 97.86% | 93.87% | – | – | – | – | – | – | – | – | – | – | – | –
4 | C[C@@H]1O[C@@H]1P(=O)(O)O [Fosfomycin] | 101.25% | 100.97% | 101.52% | 92.74% | 95% | 90.48% | – | – | – | – | – | – | – | – | – | – | – | –
5 | Cc1ccnc2c1NC(=O)c1cccnc1N2C1CC1 [Nevirapine] | 112.57% | 101.89% | 123.25% | 95.31% | 95.47% | 95.14% | – | – | – | – | – | – | – | – | – | – | – | –
6 | NC[C@H](O)c1ccc(O)c(O)c1 [Norepinephrine] | 102.77% | 101.72% | 103.82% | 92.90% | 93.2% | 92.59% | – | – | – | – | – | – | – | – | – | – | – | –
7 | C=C[C@H]1CN2CC[C@H]1C[C@@H]2[C@@H](O)c1ccnc2ccc(OC)cc12 [Quinidine] | 102.25% | 101.97% | 102.52% | 96.54% | 95.41% | 97.67% | – | – | – | – | – | – | – | – | – | – | – | –
8 | CN1CC(=O)N2[C@H](c3ccc4c(c3)OCO4)c3[nH]c4ccccc4c3C[C@@H]2C1=O [Tadalafil] | – | – | – | – | – | – | 103.78% | 105.89% | 101.67% | 108.37% | 107.23% | 109.5% | 102.42% | 103.18% | 101.65% | 97.95% | 98.92% | 96.97%
9 | Cn1c(=O)c2[nH]cnc2n(C)c1=O [Theophylline] | 109.44% | 109.64% | 109.23% | 98.91% | 100.03% | 97.79% | – | – | – | – | – | – | – | – | – | – | – | –
